From US20120245137A1 (Zalicus Pharmaceuticals Ltd., priority 2009, published 2012)

Legend:
Type in all cases: cell-based
[1] = biological target: human α1G T-type channels (Homo sapiens, UniProt O43497); assay: T-type calcium channel block, whole cell patch clamp, α1G; conditions: HEK cells stably expressing human α1G; mainly non-inactivated protocol; values above 10,000 nM represented as 10000
How it was run: (§1)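 Using standard patch-clamp, T-type currents were recorded from stably transfected human α1G or α1H HEK 293 cells. Separate non-inactivating and inactivation voltage protocols distinguished resting from voltage-dependent block by locally applied compound in 0.1-0.01% DMSO.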

[2] = biological target: human α1H T-type channels (Homo sapiens, UniProt O95180); assay: T-type calcium channel block, whole cell patch clamp, α1H; conditions: HEK cells stably expressing human α1H; mainly non-inactivated protocol; values above 10,000 nM represented as 10000
How it was run: as §1

[3] = biological target: N-type calcium channel subunits (α1B, α2δ, and β3a) (Homo sapiens, UniProt Q00975); assay: Block of Cav2.2 channel, whole cell voltage clamp, manual and PatchXpress; conditions: Table 5; table follows Assay Example 3 (whole cell voltage clamp / PatchXpress); assay not given
How it was run: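 Percent block taken as current amplitude ratio with versus without compound, applied in rising doses; IC50 fitted where one cell received multiple doses. Protocol: 50 ms pulses to +20 mV at 0.067 Hz from […] or −90 mV holding; P/n leak subtraction, no junction-potential correction; manual and PatchXpress recordings.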

human α1G T-type channels, sequence (O43497 whole entry): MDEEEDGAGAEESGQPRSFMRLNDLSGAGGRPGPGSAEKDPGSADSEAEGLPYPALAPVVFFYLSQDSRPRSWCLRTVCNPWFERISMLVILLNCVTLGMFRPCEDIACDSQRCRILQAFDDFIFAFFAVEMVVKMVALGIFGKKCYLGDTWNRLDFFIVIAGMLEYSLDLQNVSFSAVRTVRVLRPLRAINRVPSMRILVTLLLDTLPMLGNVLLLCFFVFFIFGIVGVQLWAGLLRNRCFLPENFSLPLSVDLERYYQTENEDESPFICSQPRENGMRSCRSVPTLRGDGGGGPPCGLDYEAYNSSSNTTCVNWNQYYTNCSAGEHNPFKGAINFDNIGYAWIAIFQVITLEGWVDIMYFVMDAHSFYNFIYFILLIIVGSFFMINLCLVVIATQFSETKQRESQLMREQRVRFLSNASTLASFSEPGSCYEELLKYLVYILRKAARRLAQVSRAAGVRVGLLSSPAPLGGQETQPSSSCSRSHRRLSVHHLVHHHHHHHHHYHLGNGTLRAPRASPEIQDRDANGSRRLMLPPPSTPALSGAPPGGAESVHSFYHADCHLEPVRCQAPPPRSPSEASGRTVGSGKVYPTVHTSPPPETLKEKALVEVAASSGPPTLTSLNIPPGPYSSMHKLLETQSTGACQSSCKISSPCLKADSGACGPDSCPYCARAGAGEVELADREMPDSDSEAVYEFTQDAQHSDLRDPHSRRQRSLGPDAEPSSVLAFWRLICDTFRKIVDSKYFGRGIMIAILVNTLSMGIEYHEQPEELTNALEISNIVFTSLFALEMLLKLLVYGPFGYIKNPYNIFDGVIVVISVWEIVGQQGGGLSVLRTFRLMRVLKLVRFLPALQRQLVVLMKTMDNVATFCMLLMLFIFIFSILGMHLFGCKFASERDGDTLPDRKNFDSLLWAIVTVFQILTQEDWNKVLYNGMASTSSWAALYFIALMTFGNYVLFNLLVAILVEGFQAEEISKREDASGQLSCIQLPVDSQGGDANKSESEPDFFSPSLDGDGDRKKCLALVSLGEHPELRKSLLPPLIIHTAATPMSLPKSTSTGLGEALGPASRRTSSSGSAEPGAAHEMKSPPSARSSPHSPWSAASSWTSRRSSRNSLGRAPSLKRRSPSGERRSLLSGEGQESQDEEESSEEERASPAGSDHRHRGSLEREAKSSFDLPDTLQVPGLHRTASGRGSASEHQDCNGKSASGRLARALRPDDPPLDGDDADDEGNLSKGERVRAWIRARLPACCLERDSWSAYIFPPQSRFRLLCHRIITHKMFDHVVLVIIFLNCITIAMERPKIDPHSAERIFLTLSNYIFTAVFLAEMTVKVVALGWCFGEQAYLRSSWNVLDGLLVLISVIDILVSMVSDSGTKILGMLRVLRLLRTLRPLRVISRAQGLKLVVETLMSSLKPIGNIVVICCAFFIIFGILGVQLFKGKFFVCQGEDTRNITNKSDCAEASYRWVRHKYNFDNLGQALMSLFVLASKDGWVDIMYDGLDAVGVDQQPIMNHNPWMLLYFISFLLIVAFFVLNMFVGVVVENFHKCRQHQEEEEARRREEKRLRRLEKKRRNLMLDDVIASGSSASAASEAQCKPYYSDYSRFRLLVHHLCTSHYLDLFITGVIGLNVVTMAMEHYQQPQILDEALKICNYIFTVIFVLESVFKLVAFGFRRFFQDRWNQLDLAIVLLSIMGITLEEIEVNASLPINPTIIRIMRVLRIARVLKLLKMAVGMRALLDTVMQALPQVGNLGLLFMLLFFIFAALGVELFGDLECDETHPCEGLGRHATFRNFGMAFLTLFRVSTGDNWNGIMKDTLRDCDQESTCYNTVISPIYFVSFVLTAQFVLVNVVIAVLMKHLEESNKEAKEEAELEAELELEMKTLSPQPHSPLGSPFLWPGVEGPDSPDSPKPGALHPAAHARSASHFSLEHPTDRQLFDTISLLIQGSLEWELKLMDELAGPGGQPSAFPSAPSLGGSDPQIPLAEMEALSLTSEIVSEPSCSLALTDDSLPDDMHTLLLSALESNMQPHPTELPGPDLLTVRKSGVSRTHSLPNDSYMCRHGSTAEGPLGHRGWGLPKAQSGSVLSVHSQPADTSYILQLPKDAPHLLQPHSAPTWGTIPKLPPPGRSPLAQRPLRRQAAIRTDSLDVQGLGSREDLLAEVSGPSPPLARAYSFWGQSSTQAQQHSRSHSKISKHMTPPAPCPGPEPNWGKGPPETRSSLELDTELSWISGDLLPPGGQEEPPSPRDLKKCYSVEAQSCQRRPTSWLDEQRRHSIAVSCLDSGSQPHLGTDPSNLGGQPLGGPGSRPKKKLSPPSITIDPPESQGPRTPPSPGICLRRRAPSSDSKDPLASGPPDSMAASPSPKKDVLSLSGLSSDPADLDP
human α1H T-type channels, sequence (O95180 whole entry): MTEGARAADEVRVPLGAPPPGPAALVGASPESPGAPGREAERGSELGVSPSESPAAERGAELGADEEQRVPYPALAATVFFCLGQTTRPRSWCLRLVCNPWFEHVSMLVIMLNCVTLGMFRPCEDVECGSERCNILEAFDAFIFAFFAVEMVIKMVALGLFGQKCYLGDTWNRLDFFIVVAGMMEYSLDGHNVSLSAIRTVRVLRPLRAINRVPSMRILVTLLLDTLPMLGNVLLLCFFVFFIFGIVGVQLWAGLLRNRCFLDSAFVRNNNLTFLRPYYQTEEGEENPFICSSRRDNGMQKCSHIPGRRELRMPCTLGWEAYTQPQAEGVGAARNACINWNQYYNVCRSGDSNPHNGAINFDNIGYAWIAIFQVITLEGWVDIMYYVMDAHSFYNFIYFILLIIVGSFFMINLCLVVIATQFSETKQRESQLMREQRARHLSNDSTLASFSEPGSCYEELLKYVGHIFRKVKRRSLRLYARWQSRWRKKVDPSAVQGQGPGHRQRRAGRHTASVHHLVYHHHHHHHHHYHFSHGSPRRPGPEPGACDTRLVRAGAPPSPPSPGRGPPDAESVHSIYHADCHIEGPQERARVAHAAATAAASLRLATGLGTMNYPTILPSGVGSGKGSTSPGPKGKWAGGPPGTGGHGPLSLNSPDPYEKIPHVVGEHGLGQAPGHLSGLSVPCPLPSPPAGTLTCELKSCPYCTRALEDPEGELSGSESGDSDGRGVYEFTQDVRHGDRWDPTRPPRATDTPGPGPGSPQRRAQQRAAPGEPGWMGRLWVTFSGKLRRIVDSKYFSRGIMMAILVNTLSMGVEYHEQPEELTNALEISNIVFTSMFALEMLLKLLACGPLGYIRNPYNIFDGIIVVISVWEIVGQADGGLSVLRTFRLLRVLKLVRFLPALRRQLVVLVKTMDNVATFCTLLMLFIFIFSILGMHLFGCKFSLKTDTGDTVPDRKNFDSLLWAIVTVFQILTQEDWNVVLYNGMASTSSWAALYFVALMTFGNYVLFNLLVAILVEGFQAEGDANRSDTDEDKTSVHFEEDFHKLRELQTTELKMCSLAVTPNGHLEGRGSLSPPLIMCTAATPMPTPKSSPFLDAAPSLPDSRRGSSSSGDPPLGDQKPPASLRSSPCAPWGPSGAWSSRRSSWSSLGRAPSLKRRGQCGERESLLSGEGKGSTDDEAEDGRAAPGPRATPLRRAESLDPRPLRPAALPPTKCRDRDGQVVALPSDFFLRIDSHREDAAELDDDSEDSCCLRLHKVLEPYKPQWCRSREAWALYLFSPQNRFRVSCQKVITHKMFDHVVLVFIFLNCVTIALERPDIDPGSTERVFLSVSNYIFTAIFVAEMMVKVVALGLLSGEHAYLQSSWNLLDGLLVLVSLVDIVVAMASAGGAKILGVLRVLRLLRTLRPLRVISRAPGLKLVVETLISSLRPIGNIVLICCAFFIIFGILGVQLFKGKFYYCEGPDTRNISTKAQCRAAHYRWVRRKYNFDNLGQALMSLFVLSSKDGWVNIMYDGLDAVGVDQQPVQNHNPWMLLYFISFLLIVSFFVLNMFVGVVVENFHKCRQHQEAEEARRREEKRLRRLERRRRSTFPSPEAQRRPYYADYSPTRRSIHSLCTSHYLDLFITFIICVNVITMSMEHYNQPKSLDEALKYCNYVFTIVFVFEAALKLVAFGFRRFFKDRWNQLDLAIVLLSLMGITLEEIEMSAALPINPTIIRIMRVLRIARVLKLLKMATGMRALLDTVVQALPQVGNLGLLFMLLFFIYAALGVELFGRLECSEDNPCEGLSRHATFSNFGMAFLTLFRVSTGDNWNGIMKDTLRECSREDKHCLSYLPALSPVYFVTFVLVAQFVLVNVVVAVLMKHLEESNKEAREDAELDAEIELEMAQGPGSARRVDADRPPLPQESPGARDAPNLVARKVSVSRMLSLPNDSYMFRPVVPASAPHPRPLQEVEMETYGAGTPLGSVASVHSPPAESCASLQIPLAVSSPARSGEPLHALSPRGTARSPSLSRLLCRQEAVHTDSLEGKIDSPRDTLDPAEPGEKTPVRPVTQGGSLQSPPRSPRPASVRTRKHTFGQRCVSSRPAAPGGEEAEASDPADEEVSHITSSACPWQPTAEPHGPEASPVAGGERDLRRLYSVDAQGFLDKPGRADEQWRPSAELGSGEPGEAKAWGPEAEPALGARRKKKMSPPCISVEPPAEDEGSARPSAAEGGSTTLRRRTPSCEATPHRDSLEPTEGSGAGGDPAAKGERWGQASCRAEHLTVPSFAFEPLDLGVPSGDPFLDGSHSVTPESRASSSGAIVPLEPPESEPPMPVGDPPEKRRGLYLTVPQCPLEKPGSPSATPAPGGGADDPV

| Molecule | IC50 [1] [nM] | IC50 [2] [nM] | IC50 [3] [nM] |
| --- | --- | --- | --- |
| 4-chloro-2-methoxy-N-((1S,4S)-4- ((3- (trifluoromethyl)phenylsulfonyl) methyl)cyclohexyl)benzamide [Compound 140] | 1100 | 700 | 700 |
| 4-fluoro-N-(4-methyl-4-(3- (trifluoromethyl)phenylsulfonyl) cyclohexyl)-3-(trifluoromethyl) benzamide [Compound 4] | 8540 | 6740 | 140 |
| CC1(S(=O)(=O)c2cccc(C(F)(F)F)c2)CCC(NC(=O)c2ccc(C(F)(F)F)nc2)CC1 (stereo not drawn) [Compound 1, N-(4-methyl-4-(3-(trifluoromethyl)phenylsulfonyl)cyclohexyl)-6-(trifluoromethyl) nicotinamide] | > 10000 | 7400 | 1030 |
| CC1(S(=O)(=O)c2cccc(C(F)(F)F)c2)CCC(NC(=O)c2cnc(C(F)(F)F)nc2)CC1 (stereo not drawn) [Compound 2, N-(4-methyl-4-(3-(trifluoromethyl)phenylsulfonyl)cyclohexyl)-2-(trifluoromethyl) pyrimidine-5-carboxamide] | 1380 | 1170 | 950 |
| Cn1nc(C(F)(F)F)cc1C(=O)NC1CCC(C)(S(=O)(=O)c2cccc(C(F)(F)F)c2)CC1 (stereo not drawn) [Compound 6, 1-methyl-N-(4-methyl-4-(3-(trifluoromethyl)phenylsulfonyl)cyclohexyl)-3-(trifluoromethyl)-1H-pyrazole-5-carboxamide] | > 10000 | > 10000 | 330 |
| CC1(S(=O)(=O)c2cccc(C(F)(F)F)c2)CCC(NC(=O)c2ccn(CC(F)(F)F)n2)CC1 (stereo not drawn) [Compound 7, N-(4-methyl-4-(3-(trifluoromethyl)phenylsulfonyl)cyclohexyl)-l-(2,2,2-trifluoroethyl)-1H-pyrazole-3-carboxamide] | > 10000 | > 10000 | 1580 |
| O=C(NC1CCC(S(=O)(=O)c2cccc(C(F)(F)F)c2)CC1)c1ccc(C(F)(F)F)nc1 (stereo not drawn) [Compound 8, 6-(trifluoromethyl)-N-(4-(3-(trifluoromethyl)phenylsulfonyl)cyclohexyl)nicotinamide] | > 10000 | 6710 | 2300 |
| O=C(NC1CCC(S(=O)(=O)c2cccc(C(F)(F)F)c2)CC1)c1cnc(C(F)(F)F)nc1 (stereo not drawn) [Compound 9, 2-(trifluoromethyl)-N-(4-(3-(trifluoromethyl)phenylsulfonyl)cyclohexyl)pyrimidine-5-carboxamide] | 1130 | 1030 | 2520 |
| O=C(NC1CCC(S(=O)(=O)c2cccc(C(F)(F)F)c2)CC1)c1ccc(C(F)(F)F)cn1 (stereo not drawn) [Compound 10, 5-(trifluoromethyl)-N-(4-(3-(trifluoromethyl)phenylsulfonyl)cyclohexyl)picolinamide] | 4200 | 3820 | 1460 |
| O=C(NC1CCC(S(=O)(=O)c2cccc(C(F)(F)F)c2)CC1)c1ccc(F)c(C(F)(F)F)c1 (stereo not drawn) [Compound 11, 4-fluoro-3-(trifluoromethyl)-N-(4-(3-(trifluoromethyl)phenylsulfonyl)cyclohexyl)benzamide] | > 10000 | > 10000 | 150 |
| Cn1nc(C(F)(F)F)cc1C(=O)NC1CCC(S(=O)(=O)c2cccc(C(F)(F)F)c2)CC1 (stereo not drawn) [Compound 13, 1-methyl-3-(trifluoromethyl)-N-(4-(3-(trifluoromethyl)phenylsulfonyl)cyclohexyl)-1H-pyrazole-5-carboxamide] | > 10000 | > 10000 | 690 |
| O=C(NC1CCC(S(=O)(=O)c2cccc(C(F)(F)F)c2)CC1)c1ccn(CC(F)(F)F)n1 (stereo not drawn) [Compound 14, 1-(2,2,2-trifluoroethyl)-N-(4-(3-(trifluoromethyl)phenylsulfonyl)cyclohexyl)-1H-pyrazole-3-carboxamide] | 1320 | 330 | 2210 |
| CC(C)(C)NC(=O)CNC1CCC(C)(S(=O)(=O)c2cccc(C(F)(F)F)c2)CC1 (stereo not drawn) [Compound 15, N-tert-butyl-2-(4-methyl-4-(3-(trifluoromethyl)phenylsulfonyl)cyclohexylamino)acetamide] | > 10000 | 4620 | 50 |
| CC(C)(C)NC(=O)CNC1CCC(S(=O)(=O)c2cccc(C(F)(F)F)c2)CC1 (stereo not drawn) [Compound 16, N-tert-butyl-2-(4-(3-(trifluoromethyl)phenylsulfonyl)cyclohexylamino)acetamide] | > 10000 | 9180 | 140 |
| CC1(S(=O)(=O)c2cccc(C(F)(F)F)c2)CCC(NC(=O)CNC2CCCCC2)CC1 (stereo not drawn) [Compound 17, 2-(cyclohexylamino)-N-(4-methyl-4-(3-(trifluoromethyl)phenylsulfonyl)cyclohexyl)acetamide] | 2330 | 1420 | 260 |
| CC1(S(=O)(=O)c2cccc(C(F)(F)F)c2)CCN(C(=O)CNC2CCCCC2)CC1 [Compound 18, 2-(cyclohexylamino)-l-(4-methyl-4-(3-(trifluoromethyl)phenylsulfonyl)piperidin-l-yl)ethanone] | 3060 | 2720 | 390 |
| CC1(S(=O)(=O)c2cccc(C(F)(F)F)c2)CCC(NC(=O)c2cc(F)cc(Cl)c2)CC1 (stereo not drawn) [Compound 19, 3-chloro-5-fluoro-N-(4-methyl-4-(3-(trifluoromethyl)phenylsulfonyl)cyclohexyl)benzamide] | 5240 | 3020 | 60 |
| COc1cc(F)cc(C(=O)NC2CCC(C)(S(=O)(=O)c3cccc(C(F)(F)F)c3)CC2)c1 (stereo not drawn) [Compound 20, 3-fluoro-5-methoxy-N-(4-methyl-4-(3-(trifluoromethyl)phenylsulfonyl)cyclohexyl)benzamide] | 1970 | 1380 | 70 |
| CC1(S(=O)(=O)c2cccc(C(F)(F)F)c2)CCC(NC(=O)c2cc(C(F)(F)F)ccn2)CC1 (stereo not drawn) [Compound 21, N-(4-methyl-4-(3-(trifluoromethyl)phenylsulfonyl)cyclohexyl)-4-(trifluoromethyl)picolinamide] | 6560 | 4020 | 200 |

Further lines, results first:

| IC50 [1] [nM] | IC50 [2] [nM] | IC50 [3] [nM] | Molecule |
| --- | --- | --- | --- |
| 30 | 440 | 660 | 4-chloro-3-fluoro-N-((1R,4R)-4-(3- (trifluoromethyl)phenylsulfonyl) cyclohexyl)benzamide [Compound 123] |
| 9880 | 2840 | 420 | 4-fluoro-3-(trifluoromethyl)-N- ((1S,4S)-4-((3- (trifluoromethyl)phenylsulfonyl) methyl)cyclohexyl)benzamide [Compound 138] |
| > 10000 | > 10000 | 840 | 5-(trifluoromethyl)-N-((1R,4R)-4- ((3- (trifluoromethyl)phenylsulfonyl) methyl)cyclohexyl)picolinamide [Compound 104] |
| 2790 | 1190 | 240 | CN(C(=O)CNC1CCC(S(=O)(=O)c2cccc(C(F)(F)F)c2)CC1)C(C)(C)C (stereo not drawn) [Compound 23, N-tert-butyl-N-methyl-2-(4-(3-(trifluoromethyl)phenylsulfonyl)cyclohexylamino)acetamide] |
| 2790 | 4660 | 360 | COc1cc(F)cc(C(=O)NC2CCC(S(=O)(=O)c3cccc(C(F)(F)F)c3)CC2)c1 (stereo not drawn) [Compound 25, 3-fluoro-5-methoxy-N-(4-(3-(trifluoromethyl)phenylsulfonyl)cyclohexyl)benzamide] |
| 2790 | > 10000 | 210 | O=C(NC1CCC(S(=O)(=O)c2cccc(C(F)(F)F)c2)CC1)c1cc(F)cc(Cl)c1 (stereo not drawn) [Compound 26, 3-chloro-5-fluoro-N-(4-(3-(trifluoromethyl)phenylsulfonyl)cyclohexyl)benzamide] |
| 760 | 720 | 250 | CC(C)(C)NC(=O)CN[C@H]1CC[C@@](F)(S(=O)(=O)c2cccc(C(F)(F)F)c2)CC1 [Compound 27, N-tert-butyl-2-((1S,4S)-4-fluoro-4-(3-(trifluoromethyl)phenylsulfonyl)cyclohexylamino)acetamide] |
| 1230 | 1270 | 940 | CC(C)(C)NC(=O)CN[C@H]1CC[C@](F)(S(=O)(=O)c2cccc(C(F)(F)F)c2)CC1 [Compound 28, N-tert-butyl-2-((1R,4R)-4-fluoro-4-(3-(trifluoromethyl)phenylsulfonyl)cyclohexylamino)acetamide] |
| 260 | 430 | 610 | O=C(NC[C@H]1CC[C@@H](S(=O)(=O)c2cccc(C(F)(F)F)c2)CC1)c1cc(F)cc(Cl)c1 [Compound 29, 3-chloro-5-fluoro-N-(((1S,4S)-4-(3-(trifluoromethyl)phenylsulfonyl)cyclohexyl)methyl)benzamide] |
| 1290 | 1410 | 720 | COc1cc(F)cc(C(=O)NC[C@H]2CC[C@@H](S(=O)(=O)c3cccc(C(F)(F)F)c3)CC2)c1 [Compound 30, 3-fluoro-5-methoxy-N-(((1S,4S)-4-(3-(trifluoromethyl)phenylsulfonyl)cyclohexyl)methyl)benzamide] |
| 1150 | 5540 | 360 | O=C(NC[C@H]1CC[C@@H](S(=O)(=O)c2cccc(C(F)(F)F)c2)CC1)c1ccc(F)c(C(F)(F)F)c1 [Compound 31, 4-fluoro-3-(trifluoromethyl)-N-(((1S,4S)-4-(3-(trifluoromethyl)phenylsulfonyl)cyclohexyl)methyl)benzamide] |
